In patent publication US20240270759A1, “Preparation of SHP2 phosphatase inhibitors and its applications” (Ya Therapeutics Inc, priority 2021, published 2024):

Target: T1, SHP2 full-length protein (Homo sapiens, UniProt Q06124)
T1 construct: purchased BPS Bioscience #79330
T1 sequence (Q06124 1-593): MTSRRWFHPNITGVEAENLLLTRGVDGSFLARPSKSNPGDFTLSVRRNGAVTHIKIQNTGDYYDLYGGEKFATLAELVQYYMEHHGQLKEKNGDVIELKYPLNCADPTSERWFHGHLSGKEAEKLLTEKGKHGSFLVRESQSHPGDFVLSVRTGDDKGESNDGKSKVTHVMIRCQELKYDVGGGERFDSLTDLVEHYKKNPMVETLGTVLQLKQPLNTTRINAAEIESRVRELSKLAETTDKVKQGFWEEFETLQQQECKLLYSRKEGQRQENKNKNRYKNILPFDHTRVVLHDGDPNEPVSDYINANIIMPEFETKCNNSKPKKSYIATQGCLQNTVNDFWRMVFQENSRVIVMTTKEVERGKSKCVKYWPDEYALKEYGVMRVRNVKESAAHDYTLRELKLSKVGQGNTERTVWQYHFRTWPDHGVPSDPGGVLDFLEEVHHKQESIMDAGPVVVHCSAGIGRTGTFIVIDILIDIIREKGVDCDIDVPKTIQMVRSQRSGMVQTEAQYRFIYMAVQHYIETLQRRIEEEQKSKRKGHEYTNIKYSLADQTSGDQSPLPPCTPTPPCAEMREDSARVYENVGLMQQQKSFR
Experiment: SHP2 allosteric inhibition experiment (Homogeneous Full Length SHP-2 Assay Kit)
Assay type: biochemical
Conditions: full-length SHP2 0.06 nM with SHP-2 activating peptide; ten-point, 1 μM to 0.05 nM; read-out: IC50 Values of Compounds Inhibiting SHP2
Description: The following further describes and explains the present invention in combination with test examples, but these examples are not meant to limit the scope of the present invention. SHP2 allosteric inhibition experiment
The purpose of this test is to measure the ability of the compounds to inhibit the allosteric activity of the SHP2 full-length protein. Experimental equipment: a centrifuge (5810R) is purchased from Eppendorf Company; pipettes are purchased from Eppendorf Company and Rainin Company, and microplate readers are purchased from BioTek Company of the United States, SynergyH1 multimode microplate reader.
Experimental method: Homogeneous Full Length SHP-2 Assay Kit (BPS Bioscience, #79330) is used to detect SHP2 activity in vitro. First, add 18 μL of Master Mix to 96-well low-adsorption microplate (NUNC, #267342), that is, 0.5 μL of SHP-2 activating Peptide and 5 mM DTT are included in the reaction buffer with a final concentration of 1×. After centrifugation, add 5 μL of the compound to be tested in DMSO (final DMSO content is 1% (V/V) in each well: dissolve the compound to be tested in DMSO to 1 mM, conduct triple dilution with a total of 10 concentration levels ranging from 1 μM to 0.05 nM in the reaction buffer. After diluting SHP2 in 1× reaction buffer to a final concentration of 0.06 nM, add it to the reaction microwell plate, 2 μL per well. Set a full activity control ([…]) and a full inhibition control (without SHP-2) on the reaction plate, and incubate the reaction mixture at room temperature for 60 minutes after centrifugation.
After incubation, add 25 μL of Substrate solution to each well, containing Substrate with a final concentration of 10 μM and DTT with a final concentration of 5 mM, and after centrifugation, continue to incubate at room temperature for 30 minutes. After the reaction, set the excitation wavelength at 340 nm, the emission wavelength at 455 nm, and the gain value to 75 on the Synergy H1 microplate reader (Biotek) for reading.
Take the full activity control and full inhibition control as the values of Max and Min, and calculate the percentage inhibition rate of the wells treated with the compound based on the positive control wells (DMSO control wells) and negative control wells (no kinase added) on the reaction plate, (inhibition rate percentage=100−[(test compound−Min average value)/(Max average value−Min average value)]×100%. IC50 values of test compounds are calculated by fitting percentage of inhibition and ten-point concentration data to a 4-parameter nonlinear logic formula using GraphPad prism.

Row | Compound | IC50 [nM]
1 | C[C@@H]1OCC2(CCN(c3ccc4nc(Sc5cccc(NC(=O)c6cnccn6)c5Cl)ncc4n3)CC2)[C@@H]1N [Compound 86, N-(3-((6-((3S,4S)-4-amino-3-methyl-2-oxa-8-azaspiro[4.5]decane-8-yl)pyridinyl[3,2-d]pyrimidine-2-yl)mercapto)-2-chlorophenyl)pyrazine-2-carboxamide] | ≤ 10
2 | C[C@@H]1OCC2(CCN(c3cnc4nc(Sc5cccc(NC(=O)c6c(O)nc7n(c6=O)CCCC7)c5Cl)ncc4n3)CC2)[C@@H]1N [Compound 87, N-(3-((6-((3S,4S)-4-amino-3-methyl-2-oxa-8-azaspiro[4.5]decane-8-yl)pteridine-2-yl)mercapto)-2-chlorophenyl)-2-hydroxy-4-oxo-6,7,8,9-tetrahydro-4H-pyridinyl[1,2-a]p yrimidine-3-carboxamide] | ≤ 10
3 | C[C@@H]1OCC2(CCN(c3ncc4nc(Sc5cccc(NC(=O)c6c(O)nc7n(c6=O)CCCC7)c5Cl)cnc4n3)CC2)[C@@H]1N [Compound 88, N-(3-((2-((3S,4S)-4-amino-3-methyl-2-oxa-8-azaspiro[4.5]decane-8-yl)pteridine-6-yl)mercapto)-2-chlorophenyl)-2-hydroxy-4-oxo-6,7,8,9-tetrahydro-4H-pyridinyl[1,2-a]p yrimidine-3-carboxamide] | ≤ 10
4 | C[C@@H]1OCC2(CCN(c3ccc4nc(Sc5cccc(NC(=O)c6c(O)nc7n(c6=O)CCCC7)c5Cl)ncc4n3)CC2)[C@@H]1N [Compound 89, N-(3-((6-((3S,4S)-4-amino-3-methyl-2-oxa-8-azaspiro[4.5]decane-8-yl)pyridinyl[3,2-d]pyrimidine-2-yl)mercapto)-2-chlorophenyl)-2-hydroxy-4-oxo-6,7,8,9-tetrahydro-4H-pyridinyl[1,2-a]pyrimidine-3-carboxamide] | ≤ 10
5 | C[C@@H]1OCC2(CCN(c3ncc4nc(Sc5cccc(-c6ccn(C)n6)c5Cl)ccc4n3)CC2)[C@@H]1N [Compound 90, (3S,4S)-8-(6-((2-chloro-3-(1-methyl-1H-pyrazole-3-yl)phenyl)mercapto)pyridinyl[3,2-b]pyrimidine-2-yl)-3-methyl-2-oxa-8-azaspiro[4.5]decane-4-amine] | ≤ 10
6 | C[C@@H]1OCC2(CCN(c3ccc4nc(Sc5cccc(-c6ccn(C)n6)c5Cl)cnc4n3)CC2)[C@@H]1N [Compound 91, (3S,4S)-8-(2-((2-chloro-3-(1-methyl-1H-pyrazole-3-yl)phenyl)mercapto)pyridinyl[2,3-b]pyrazine-6-yl)-3-methyl-2-oxa-8-azaspiro[4.5]decane-4-amine] | ≤ 10
7 | C[C@@H]1OCC2(CCN(c3cnc4nc(Sc5cccc(-c6ccn(C)n6)c5Cl)ccc4n3)CC2)[C@@H]1N [Compound 92, (3S,4S)-8-(6-((2-chloro-3-(1-methyl-1H-pyrazole-3-yl)phenyl)mercapto)pyridinyl[2,3-b]pyrazine-2-yl)-3-methyl-2-oxa-8-azaspiro[4.5]decane-4-amine] | ≤ 10
8 | C[C@@H]1OCC2(CCN(c3ncc4nc(Sc5cccc(Oc6ccn(C)n6)c5Cl)cnc4n3)CC2)[C@@H]1N [Compound 93] | ≤ 10
9 | C[C@@H]1OCC2(CCN(c3cnc4nc(Sc5cccc(Oc6ccn(C)n6)c5Cl)ncc4n3)CC2)[C@@H]1N [Compound 94] | ≤ 10
10 | C[C@@H]1OCC2(CCN(c3ccc4nc(Sc5cccc(Oc6ccn(C)n6)c5Cl)ncc4n3)CC2)[C@@H]1N [Compound 95] | ≤ 10
11 | C[C@@H]1OCC2(CCN(c3ncc4nc(Sc5cccc(NC(=O)c6c(O)nc7n(c6=O)CCCC7)c5Cl)ccc4n3)CC2)[C@@H]1N [Compound 96, N-(3-((2-((3S,4S)-4-amino-3-methyl-2-oxa-8-azaspiro[4.5]decane-8-yl)pyridinyl[3,2-d]pyrimidine-6-yl)mercapto)-2-chlorophenyl)-2-hydroxy-4-oxo-6,7,8,9-tetrahydro-4H-pyridinyl[1,2-a]pyrimidine-3-carboxamide] | ≤ 10
12 | C[C@@H]1OCC2(CCN(c3ccc4nc(Sc5cccc(NC(=O)c6c(O)nc7n(c6=O)CCCC7)c5Cl)cnc4n3)CC2)[C@@H]1N [Compound 97, N-(3-((6-((3S,4S)-4-amino-3-methyl-2-oxa-8-azaspiro[4.5]decane-8-yl)pyridinyl[2,3-b]pyrazine-2-yl)mercapto)-2-chlorophenyl)-2-hydroxy-4-oxo-6,7,8,9-tetrahydro-4H-p yridinyl[1,2-a]pyrimidine-3-carboxamide] | ≤ 10
13 | C[C@@H]1OCC2(CCN(c3cnc4nc(Sc5cccc(NC(=O)c6c(O)nc7n(c6=O)CCCC7)c5Cl)ccc4n3)CC2)[C@@H]1N [Compound 98, N-(3-((2-((3S,4S)-4-amino-3-methyl-2-oxa-8-azaspiro[4.5]decane-8-yl)pyridinyl[2,3-b]pyrazine-6-yl)mercapto)-2-chlorophenyl)-2-hydroxy-4-oxo-6,7,8,9-tetrahydro-4H-p yridinyl[1,2-a]pyrimidine-3-carboxamide] | ≤ 10
14 | C[C@@H]1OCC2(CCN(c3cnc(Sc4cccc(-c5ccn(C)n5)c4Cl)nc3)CC2)[C@@H]1N [Compound 99, (3S,4S)-8-(2-((2-chloro-3-(1-methyl-1H-pyrazole-3-yl)phenyl)mercapto)pyrimidine-5-yl)-3-methyl-2-oxa-8-azaspiro[4.5]decane-4-amine] | ≤ 10
15 | CCn1ccc(-c2cccc(Sc3ncc(N4CCC5(CC4)CO[C@@H](C)[C@H]5N)cn3)c2Cl)n1 [Compound 100, (3S,4S)-8-(2-((2-chloro-3-(1-ethyl-1H-pyrazole-3-yl)phenyl)mercapto)pyrimidine-5-yl)-3-methyl-2-oxa-8-azaspiro[4.5]decane-4-amine] | ≤ 10
16 | CC(C)n1ccc(-c2cccc(Sc3ncc(N4CCC5(CC4)CO[C@@H](C)[C@H]5N)cn3)c2Cl)n1 [Compound 101, (3S,4S)-8-(2-((2-chloro-3-(1-isopropyl-1H-pyrazole-3-yl)phenyl)mercapto)pyrimidine-5-yl)-3-methyl-2-oxa-8-azaspiro[4.5]decane-4-amine] | ≤ 10
17 | C[C@@H]1OCC2(CCN(c3cnc(Sc4cccc(NC(=O)c5c(O)nc6n(c5=O)CCCC6)c4Cl)nc3)CC2)[C@@H]1N [Compound 102, N-(3-((5-((3S,4S)-4-amino-3-methyl-2-oxa-8-azaspiro[4.5]decane-8-yl)pyrimidine-2-yl)mercapto)-2-chlorobenzene)-2-hydroxyl-4-oxa-6,7,8,9-tetrahydro-4H-pyridinyl[1,2-a]pyrimidine-3-carboxamide] | ≤ 10
18 | C[C@@H]1OCC2(CCN(c3cnc(Sc4cccc(-c5cncnc5)c4Cl)nc3)CC2)[C@@H]1N [Compound 103, (3S,4S)-8-(2-((2-chloro-3-(pyrimidine-5-yl)phenyl)mercapto)pyrimidine-5-yl)-3-methyl-2-oxa-8-azaspiro[4.5]decane-4-amine] | ≤ 10
19 | C[C@@H]1OCC2(CCN(c3cnc(Sc4cccc(-c5cnccn5)c4Cl)nc3)CC2)[C@@H]1N [Compound 104, (3S,4S)-8-(2-((2-chloro-3-(pyrazine-2-yl)phenyl)mercapto)pyrimidine-5-yl)-3-methyl-2-oxa-8-azaspiro[4.5]decane-4-amine] | ≤ 10
20 | C[C@@H]1OCC2(CCN(c3cnc(Sc4cccc(-c5cccnc5)c4Cl)nc3)CC2)[C@@H]1N [Compound 105, (3S,4S)-8-(2-((2-chloro-3-(pyridine-3-yl)phenyl)mercapto)pyrimidine-5-yl)-3-methyl-2-oxa-8-azaspiro[4.5]decane-4-amine] | ≤ 10
21 | C[C@@H]1OCC2(CCN(c3cnc(Sc4cccc(-c5ccncn5)c4Cl)nc3)CC2)[C@@H]1N [Compound 106, (3S,4S)-8-(2-((2-chloro-3-(pyrimidine-4-yl)phenyl)mercapto)pyrimidine-5-yl)-3-methyl-2-oxa-8-azaspiro[4.5]decane-4-amine] | ≤ 10
